Data set [1] is described as follows: Mouse liver microsome assay (metabolic stability). In kind it is in vitro ADME. Conditions: mouse liver microsomes; for half-life at 2 µM: in vitro half-life; for microsomal CLint at 2 µM: in vitro intrinsic clearance, read-out: Relative Clint. On the procedure:
Example 6. Mouse Liver Microsome Assay
Metabolic stability of several compounds in mouse liver microsomes was tested. Briefly, a master solution was prepared according to Table 31.
Two separate experiments were performed: an experiment with cofactors and an experiment without cofactors. In the experiment with cofactors 40 μL of 10 mM NADPH and 40 μL of 20 mM UDPGA were added to the incubations. The final concentrations of microsomes, NADPH and UDPGA were 0.5 mg/mL, 1 mM and 2 mM, respectively. In the experiment without cofactors 10 μL of 20 mg/mL liver microsomes and 80 μL of ultra-pure H2O were added to the incubations. The final concentration of microsomes was 0.5 mg/mL. The mixture was pre-warmed at 37° C. for 5 minutes.
The reaction was started with the addition of 4 μL of 200 μM control compound or test compound solutions. Verapamil was used as positive control in this study. The final concentration of test compound was 2 μM and the final concentration of control compound was 1 μM. The incubation solution was incubated in water bath at 37° C.
Aliquots of 50 μL were taken from the reaction solution at 0.5, 5, 15, 30, 45 and 60 minutes. The reaction was stopped by the addition of five volumes of cold acetonitrile with IS (100 nM alprazolam, 200 nM caffeine and 100 nM tolbutamide). Samples were centrifuged at 3,220 g for 40 minutes. Aliquot of 100 μL of the supernatant was mixed with 100 μL of ultra-pure H2O and then subject to LC-MS/MS analysis.
All calculations were carried out using Microsoft Excel. Peak areas were determined from extracted ion chromatograms. The slope value, k, was determined by linear regression of the natural logarithm of the remaining percentage of the parent drug versus incubation time curve. The in vitro half-life (in vitro t½) was determined from the slope value:
Conversion of the in vitro t1/2(min) into the in vitro intrinsic clearance (in vitro CLint, in μL/min/mg protein) was done using the following equation (mean of duplicate determinations): […]

The test system of data set [2] is HCT116. Description: HCT116 growth inhibition assay. In kind it is cell-based. Conditions: without formate. As to the method:
(§1) Example 5. HCT116 Growth Inhibition and Formate Rescue Assays
(§2) 3,000 Cells were plated in each well of a 96-well plate with 80 μL of DMEM media supplemented with 10% dFBS, and incubated for 24 hours. Drugs with or without sodium formate (1 mM) were then added to each well to a final volume of 100 μL. Cell growth was measured as fluorescence intensity by resazurin after four days. In short, resazurin was added to each well to a final concentration of 10 μg·mL^−1. After incubation for one hour, fluorescence was measured by a Synergy HT plate reader (BioTek Instruments).

Data set [3] relates to HCT116. Kind of data set: HCT116 formate rescue assay (with sodium formate 1 mM). In kind it is cell-based. Conditions: Homo sapiens, HCT-116, 96 h, HCT116 growth. On the procedure: as §1, §2

For `Cc1nnc(N2CC(C#Cc3cc(CO)cc(C4(C(C)C)C(C#N)=C(N)Oc5[nH]nc(C)c54)c3)C2)o1` (stereo not drawn) [KDG-0472], in data set [1], the half-life at 2 µM was at least 20 min and the microsomal CLint at 2 µM was at most 70 µL/min/mg. The IC50 result in the data set with HCT116 [2] was “C″”. The IC50 in the data set on HCT116 [3] is below 100 nM.

With `Cc1nnc(N2CCC(C#Cc3cc(CO)cc(C4(C(C)C)C(C#N)=C(N)Oc5[nH]nc(C)c54)c3)CC2)o1` (stereo not drawn) [KDG-0478], in data set [1], the half-life at 2 µM was 5 to 10 min and the microsomal CLint at 2 µM was 70 to 100 µL/min/mg. For the same compound, the IC50 result in the data set on HCT116 [2] is reported as “C″”. The IC50 with HCT116 [3] is above 5000 nM.

In turn, `Cc1n[nH]c2c1C(c1cc(C#CC34CC(NC(=O)OC(C)(C)C)(C3)C4)cc(CO)c1)(C(C)C)C(C#N)=C(N)O2` (stereo not drawn) [KDG-0502, tert-butyl N-[3-[2-(3-[6-amino-5-cyano-4-isopropyl-3-methyl-1H-pyrano[2,3-c]pyrazol-4-yl]-5-(hydroxymethyl)phenyl)ethynyl]bicyclo[1.1.1]pentan-1-yl]carbamate] came in with a half-life at 2 µM in data set [1] of at least 20 min. The microsomal CLint at 2 µM in data set [1] is at most 70 µL/min/mg. For the same compound, the values for the IC50 result with HCT116 [2] and in the data set on HCT116 [3] were “B″” and below 100 nM, respectively.

The record behind these values is patent publication US20230382920A1, “SHMT Inhibitors” (The Trustees of Princeton University, priority 2020, published 2023).
